Source: patent US20200368315A1, “ANTIMICROBIAL PEPTIDES AND ADMIXTURES THEREOF SHOWING ANTIMICROBIAL ACTIVITY AGAINST GRAM-NEGATIVE PATHOGENS” (priority 2017, published 2020)
Values after ≈ are worked out from the molar mass of the structure shown. Values joined by “and” are separate entries in the source; they are usually repeats but may differ in a detail not shown here. Equal values may be shown once. Read-outs that look alike come from different tables or passages of the source.

Key:
[1] = tested on: E. coli LMG15862; assay: microbe, parasite or virus in culture; format: cell-based, Escherichia coli; conditions: E. coli LMG15862
Protocol: (§1) Escherichia coli, Klebsiella pneumoniae, Pseudomonas aeruginosa, Acinetobacter baumannii, Enterobacter aerogenes were grown in Luria-Bertani (LB) broth shaken (200 rpm) or on LB agar at 37° C. […] MICs tests were performed in duplicate by a liquid growth inhibition microdilution assays in sterilized polypropylene microtiter plates according to Wiegand and […] [27]. […] The suspension was diluted in a ratio of 1:100 using Mueller Hinton Broth (MHB) and the final inoculum is 5*10^5 CFU/mL. […] The antimicrobials were diluted serially by 1/2 one by one and 50 uL diluted bacterial suspension were added to each well to make the final volume to be 100 uL. Growth control was accomplished by remove 10 uL from well 11 and dilute 1000 times to plate 1/10 suspension on the solid medium. […] The number of colonies on the control agar plate should be around 50 to ensure the concentration of the inoculum and the effectiveness of the experiment. The lowest concentration of the antimicrobials that inhibits visible growth of the indicator is identified as MIC.

[2] = tested on: L. lactis MG1363; conditions: L. lactis MG1363
[3] = tested on: E. aerogenes LMG 02094
Protocol: (§2) The test of synergistic effect was processed by conducting standard chequerboard broth microdilution assays. […] Row 11 are used as growth control with no peptide was included, while row 12 with MHB medium-only wells was included as a sterility control as referred before. 50 uL fresh bacterial suspension was added to well 1-11 and final volume of each well on the plate is 100 uL.
(§3) The test of synergistic effect was processed as method 1.4.
(§4) To determine whether the combination therapy is additive, synergistic or antagonistic, fractional inhibitory concentration (FIC) indices were calculated. FICI=FICa+FICb=MICac/MICa+MICbc/MICb. The MICa/MICb is the MIC of compound A/B alone. MICac is the MIC of compound A in combination with compound B and MICbc is the MIC of compound B when it was combination with compound A. […]. FICa is FIC of compound A while FICb is FIC of compound B. The FICI is interpreted as follows: synergistic, FICI≤0.5; additive, 0.5<FICI<1; indifferent, 1<FICI<2; antagonistic, FICI>2.

[4] = tested on: A. baumannii LMG01041
Protocol: as §2, §3, §4

[5] = tested on: P. aeruginosa LMG 6395
Protocol: as §2, §3, §4

[6] = tested on: K. pneumoniae LMG20218
Protocol: as §2, §3, §4

[7] = tested on: E. coli LMG15862
Protocol: as §2, §3, §4

[8] = tested on: P. aeruginosa LMG 6395; format: cell-based, Pseudomonas aeruginosa
Text: (§5) The test of synergistic effect was processed by conducting standard chequerboard broth microdilution assays. Nisin (Drug X) was loaded two fold serially diluted from row 1 to 10 in X-axis while GNPs (Drug Y) were loaded in eight two fold serially diluted concentrations from line A to H in Y-axis (FIG. 1). The original concentrations of peptides were MICs of each. Row 11 are used as growth control with no peptide was included, while row 12 with MHB medium-only wells was included as a sterility control as referred before. 50 uL fresh bacterial suspension was added to well 1-11 and final volume of each well on the plate is 100 uL.
as §4

[9] = tested on: E. coli LMG15862; format: cell-based, Escherichia coli
Text: as §5, §4

[10] = tested on: E. aerogenes LMG 02094; assay: microbe, parasite or virus in culture; format: cell-based, Enterobacter aerogenes; conditions: E. aerogenes LMG 02094
Protocol: as §1

[11] = tested on: A. baumannii LMG01041; format: cell-based, Acinetobacter baumannii
Text: as §5, §4

[12] = tested on: Gram-negative pathogens; format: cell-based; conditions: L-form GNPs alone; five Gram-negative pathogens
Protocol: as §1

[13] = tested on: K. pneumoniae LMG20218; assay: microbe, parasite or virus in culture; format: cell-based, Klebsiella pneumoniae; conditions: K. pneumoniae LMG20218
Protocol: as §1

[14] = tested on: P. aeruginosa LMG 6395; assay: microbe, parasite or virus in culture; format: cell-based, Pseudomonas aeruginosa; conditions: P. aeruginosa LMG 6395
Protocol: as §1

[15] = tested on: A. baumannii LMG01041; assay: microbe, parasite or virus in culture; format: cell-based, Acinetobacter baumannii; conditions: A. baumannii LMG01041
Protocol: as §1

[16] = tested on: K. pneumoniae LMG20218; format: cell-based, Klebsiella pneumoniae
Text: as §5, §4

[17] = tested on: E. aerogenes LMG 02094; format: cell-based, Enterobacter aerogenes
Text: as §5, §4

[18] = MIC of GNP in combination with vancomycin at the MICac concentration
[19] = MIC of vancomycin in combination with the GNP at the MICbc concentration
[20] = MIC of GNP when used with the MICac concentration of nisin
[21] = MIC of nisin in combination with the GNP at the MICbc concentration

CC[C@H](C)[C@H](NC(=O)[C@H](CCCNC(=N)N)NC(=O)[C@H](CCCNC(=N)N)NC(=O)[C@H](Cc1ccccc1)NC(=O)[C@H](CC(C)C)NC(=O)[C@H](CCCNC(=N)N)NC(=O)[C@@H](N)CCCNC(=N)N)C(=O)N[C@@H](CC(C)C)C(=O)N[C@@H](CCCNC(=N)N)C(=O)N[C@@H](Cc1c[nH]c2ccccc12)C(=O)N[C@@H](CC(C)C)C(N)=O [GNP-6]
MIC value of antimicrobial compounds alone [1]: 2 µM
MICb (GNP concentration when used alone) ([1]; L-form GNP, Table 6): 2 µM
MIC value ([1]; alone): 2 µM (≈ 3.17 µg/mL)
MIC value of antimicrobial compounds alone [2]: 1 µM
MICb ([3]; MIC of GNP alone): 8 µM
MICbc [3, 18]: 2 µM
MICac [3, 19]: 8 µM
FICI ([3]; vancomycin + GNP): 0.291
MICb ([4]; MIC of GNP alone): 2 µM
MICbc [4, 18]: 0.5 µM and 1 µM
MICac [4, 19]: 8 µM and 4 µM
FICI ([4]; vancomycin + GNP): 0.5 and 0.625
MICb ([5]; MIC of GNP alone): 3 µM
MICbc [5, 18]: 1.5 µM
MICac [5, 19]: 32 µM
FICI ([5]; vancomycin + GNP): 0.75
MICb ([6]; MIC of GNP alone): 4 µM
MICbc [6, 18]: 0.25 µM
MICac [6, 19]: 32 µM and 16 µM
FICI ([6]; vancomycin + GNP): 0.313 and 0.25 and 0.5
MICb ([7]; MIC of GNP alone): 2 µM
MICbc [7, 18]: 0.5 µM
MICac [7, 19]: 16 µM
FICI ([7]; vancomycin + GNP): 0.5
MICb ([8]; MIC of GNP alone): 3 µM
MICbc [8, 20]: 0.75 µM
MICac [8, 21]: 4.5 µM
FICI ([8]; nisin + GNP): 0.375
MICb ([9]; MIC of GNP alone): 2 µM
MICbc [9, 20]: 0.5 µM
MICac [9, 21]: 1.5 µM
FICI ([9]; nisin + GNP): 0.375
MIC value of antimicrobial compounds alone [10]: 8 µM
MICb (MIC of GNP alone) ([10]; L-form GNP, Table 7): 8 µM
MIC value ([10]; alone): 8 µM (≈ 12.7 µg/mL)
MICb ([11]; MIC of GNP alone): 2 µM
MICbc [11, 20]: 0.5 µM
MICac [11, 21]: 0.75 µM
FICI ([11]; nisin + GNP): 0.375
Activity ranking amongst all the GNPs [12]: most potent
MIC value of antimicrobial compounds alone [13]: 4 µM
MICb (MIC of GNP alone) ([13]; L-form GNP, Table 7): 4 µM
MIC value ([13]; alone): 4 µM (≈ 6.34 µg/mL)
MICb (MIC of GNP alone) ([14]; L-form GNP, Table 7): 3 µM
MIC value of antimicrobial compounds alone [14]: 3 µM
MIC value ([14]; alone): 3 µM (≈ 4.75 µg/mL)
MIC value of antimicrobial compounds alone [15]: 2 µM
MICb (MIC of GNP alone) ([15]; L-form GNP, Table 7): 2 µM
MIC value ([15]; alone): 2 µM (≈ 3.17 µg/mL)
MICb ([16]; MIC of GNP alone): 4 µM
MICbc [16, 20]: 0.5 µM
MICac [16, 21]: 3 µM
FICI ([16]; nisin + GNP): 0.188
MICb ([17]; MIC of GNP alone): 8 µM
MICbc [17, 20]: 1 µM
MICac [17, 21]: 1 µM
FICI ([17]; nisin + GNP): 0.156
